Measured values: PubChem BioAssay AID1224920 (Broad Institute, 2016)
Active and inactive are the calls of the source.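 Rule for the calls: active = IC50 no higher than ten times the top tested dose; inconclusive = flat fit with 30 to 70% inhibition, or poor fit; inactive = IC50 above ten times the top dose.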

Assay: growth modulation of Clostridium difficile isolate – OD600, 9-point, retest, dose response (AID 1224920);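 note: plate controls were DMSO for no effect and levofloxacin control for full effect; inhibitors lower culture turbidity so OD600 falls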
Details: Clostridium difficile clinical isolate growth, OD600, 24 h; at 30 µM (top of the series)
In the case of `O=C(Nc1ccccc1)N1CCCCN2[C@H](CO)[C@H](c3ccc(-c4ccccc4F)cc3)[C@H]2C1`, the activity change, negative = inhibition is reported as 38.6% (inactive).

Same assay, conditions: Clostridium difficile clinical isolate growth, OD600, 24 h; at 35 µM (top of the series)
For `N#Cc1cccc(-c2ccc3c(c2)[C@@H]2[C@@H](CCN2Cc2ccc4c(c2)OCO4)[C@@H](CO)N3)c1`, the activity change, negative = inhibition was -4.09% (inactive).

Same assay, conditions: Clostridium difficile clinical isolate growth, OD600, 24 h; at 60 µM (top of the series)
In the case of `Cc1cccc(-c2ccc(C3[C@@H]4CN(C(=O)Cc5ccncc5)C[C@H]3N4)cc2)c1` (stereo partly specified), the activity change, negative = inhibition is reported as 39.4% (inactive). With `C[C@H](CO)N1C[C@H](C)[C@H](CN(C)Cc2ccc(Oc3ccccc3)cc2)Oc2ccc(NS(=O)(=O)c3ccccc3)cc2CC1=O` the activity change, negative = inhibition was 33.6% (inactive). For `C[C@H]1CN([C@@H](C)CO)C(=O)c2cccc(NC(=O)c3nc4ccccc4s3)c2O[C@H]1CN(C)S(=O)(=O)c1ccc(F)cc1`, the activity change, negative = inhibition was 0.765% (inactive).

Same assay, conditions: Clostridium difficile clinical isolate growth, OD600, 24 h; at 68 µM (top of the series)
For `COc1ccc(-c2ccccc2[C@@H]2[C@@H](C#N)N(C(=O)NC3CCCC3)[C@H]2CO)cc1`, the activity change, negative = inhibition was -5% (inactive).

Same assay, conditions: Clostridium difficile clinical isolate growth, OD600, 24 h; at 120 µM (top of the series)
For `COc1ccc(-c2ccccc2[C@@H]2[C@@H](C#N)N(C(=O)NC3CCCCC3)[C@H]2CO)cc1`, the activity change, negative = inhibition was 9.48% (inactive). For `Cc1ccccc1-c1ccc([C@H]2[C@@H](CO)N3CCCCN(S(=O)(=O)c4ccc(F)cc4)C[C@H]23)cc1`, the activity change, negative = inhibition was 3.42% (inactive). For `O=S(=O)(c1ccc(F)cc1)N1CCCCN2[C@H](CO)[C@H](c3ccc(-c4ccccc4)cc3)[C@H]2C1`, the activity change, negative = inhibition was 39.2% (inactive). In the case of `COc1ccc2c3c(n(C)c2c1)[C@@H](CO)N(C(=O)C1CC1)CC31CN(C(=O)Nc2cccc(F)c2)C1`, the activity change, negative = inhibition is reported as 18.8% (inactive). With `CC(=O)N(C)C[C@H]1[C@@H](c2ccc(-c3ccccc3F)cc2)[C@@H](CO)N1C(C)=O` the activity change, negative = inhibition was -10.3% (inactive). In the case of `COc1ccc2c3c(n(C)c2c1)[C@H](CO)N(C)CC31CN(C(=O)NC(C)C)C1`, the activity change, negative = inhibition is reported as 0.365% (inactive). In the case of `CN1c2ccc(-c3cccc(F)c3)cc2[C@@H]2[C@@H](CCN2C(=O)C2CCCC2)[C@@H]1CO`, the activity change, negative = inhibition is reported as 34.7% (inactive). In the case of `CCc1nc(N2[C@H](C#N)[C@@H](c3ccccc3-c3ccccc3F)[C@@H]2CO)sc1C`, the activity change, negative = inhibition is reported as 57.6% (inactive). With `CN(C)C(=O)c1cccc(-c2ccc([C@@H]3[C@H]4CN(C(=O)C5CCCCC5)CC(=O)N4[C@H]3CO)cc2)c1` the activity change, negative = inhibition was -5.65% (inactive). In the case of `C[C@H](CO)N1C[C@H](C)[C@H](CN(C)C(=O)Nc2ccc3c(c2)OCO3)Oc2c(NC(=O)Nc3ccc(C(F)(F)F)cc3)cccc2C1=O`, the activity change, negative = inhibition is reported as 49.4% (inactive). With `O=S(=O)(c1cccc(F)c1)N1CC[C@@H]2[C@@H](CO)Nc3ccc(-c4cccc(F)c4)cc3[C@@H]21` the activity change, negative = inhibition was 45.7% (inactive). In the case of `CN1c2ccc(Br)cc2[C@H]2[C@H](CCN2C(=O)Nc2ccc(F)cc2)[C@@H]1CO`, the activity change, negative = inhibition is reported as 55.4% (inactive). In the case of `CN1[C@@H]2c3ccc(/C=C/c4ccccc4)c(=O)n3C[C@H]1[C@H](CO)[C@H]2C(=O)NC1CCCC1`, the activity change, negative = inhibition is reported as 4.99% (inactive).

Same assay, conditions: Clostridium difficile clinical isolate growth, OD600, 24 h; at 135 µM (top of the series)
With `C/C=C/c1ccc([C@H]2[C@@H](CO)N(C(=O)CC)[C@@H]2CNC(=O)CC)cc1` the activity change, negative = inhibition was -8.82% (inactive). With `CN(C)C(=O)c1cccc(-c2ccc(C3[C@H]4CNC[C@@H]3N4S(=O)(=O)c3ccc(Cl)cc3)cc2)c1` (stereo partly specified) the activity change, negative = inhibition was 10.5% (inactive). With `CC(=O)N1[C@H](CO)[C@@H](c2ccccc2)[C@H]1CN(C)C(=O)CN1CCOCC1` the activity change, negative = inhibition was -1.86% (inactive). For `Cc1ccc(-c2ccccc2[C@@H]2[C@@H](C#N)N(C(=O)NC3CCCC3)[C@H]2CO)cc1`, the activity change, negative = inhibition was 25% (inactive). For `C[C@H]1CN([C@@H](C)CO)C(=O)c2cccc(NC(=O)Nc3ccc(C(F)(F)F)cc3)c2O[C@@H]1CN(C)C(=O)Nc1ccc(C(F)(F)F)cc1`, the activity change, negative = inhibition was 33.9% (inactive). In the case of `N#C[C@@H]1[C@H](c2ccccc2-c2cccc(F)c2)[C@H](CO)N1C(=O)Cc1cccnc1`, the activity change, negative = inhibition is reported as 9.55% (inactive). In the case of `C/C=C/c1ccc([C@H]2[C@@H](CNC(=O)c3ccccn3)N(C(C)=O)[C@H]2CO)cc1`, the activity change, negative = inhibition is reported as -7.58% (inactive).
